Experimental data published in ChEMBL document CHEMBL3039007, “Structure-based identification of OATP1B1/3 inhibitors” (Mol Pharmacol, 2013).
Residues, ends and D or L forms follow the SMILES beside them.

Assays:
[1] = target: T1, Solute carrier organic anion transporter family member 1B3 (Homo sapiens, UniProt Q9NPD5); details: chinese hamster, cho, 10 µM
T1 sequence (Q9NPD5 whole entry): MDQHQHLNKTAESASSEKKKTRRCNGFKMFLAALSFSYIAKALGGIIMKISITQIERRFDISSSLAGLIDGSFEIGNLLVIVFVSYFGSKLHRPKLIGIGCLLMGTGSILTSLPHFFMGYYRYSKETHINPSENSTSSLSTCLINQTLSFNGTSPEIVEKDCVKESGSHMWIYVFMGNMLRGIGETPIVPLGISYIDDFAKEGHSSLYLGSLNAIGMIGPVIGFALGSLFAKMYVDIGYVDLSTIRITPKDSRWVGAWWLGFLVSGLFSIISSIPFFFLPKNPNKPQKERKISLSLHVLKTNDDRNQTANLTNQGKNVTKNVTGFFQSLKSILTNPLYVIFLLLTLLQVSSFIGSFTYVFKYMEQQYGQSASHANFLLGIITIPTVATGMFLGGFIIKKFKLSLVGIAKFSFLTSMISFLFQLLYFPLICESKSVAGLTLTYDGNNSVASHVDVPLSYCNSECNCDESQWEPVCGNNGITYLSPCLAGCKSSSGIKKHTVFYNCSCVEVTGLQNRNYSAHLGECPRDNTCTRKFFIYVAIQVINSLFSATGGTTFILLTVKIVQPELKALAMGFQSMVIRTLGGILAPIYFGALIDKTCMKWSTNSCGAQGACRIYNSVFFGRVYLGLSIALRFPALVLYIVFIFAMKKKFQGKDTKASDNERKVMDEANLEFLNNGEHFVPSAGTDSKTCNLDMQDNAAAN

[2] = target: T2, Solute carrier organic anion transporter family member 1B1 (Homo sapiens, UniProt Q9Y6L6); details: chinese hamster, cho, 10 µM
T2 sequence (Q9Y6L6 whole entry): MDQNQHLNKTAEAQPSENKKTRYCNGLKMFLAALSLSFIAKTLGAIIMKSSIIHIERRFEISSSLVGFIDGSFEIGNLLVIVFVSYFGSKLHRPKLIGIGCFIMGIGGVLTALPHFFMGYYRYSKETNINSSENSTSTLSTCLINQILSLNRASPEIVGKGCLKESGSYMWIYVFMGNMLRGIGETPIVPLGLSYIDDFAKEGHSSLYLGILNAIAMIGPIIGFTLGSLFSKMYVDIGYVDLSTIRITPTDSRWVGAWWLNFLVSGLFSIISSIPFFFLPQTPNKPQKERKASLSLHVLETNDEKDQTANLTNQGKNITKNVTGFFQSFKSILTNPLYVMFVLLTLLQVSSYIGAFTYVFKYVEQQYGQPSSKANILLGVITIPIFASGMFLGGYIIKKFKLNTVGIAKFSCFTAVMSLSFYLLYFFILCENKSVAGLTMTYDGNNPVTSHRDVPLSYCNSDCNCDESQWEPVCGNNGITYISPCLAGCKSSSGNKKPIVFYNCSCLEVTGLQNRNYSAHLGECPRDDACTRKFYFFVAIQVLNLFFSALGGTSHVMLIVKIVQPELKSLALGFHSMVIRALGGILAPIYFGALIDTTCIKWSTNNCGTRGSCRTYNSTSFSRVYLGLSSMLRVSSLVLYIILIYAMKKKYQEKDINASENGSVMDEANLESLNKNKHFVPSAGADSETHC

Row | Structure (SMILES) | residual activity [1] | residual activity [2]
1 | CC(=O)O[C@@H]1C[C@H]2C(C)(C)C(=O)CC[C@]2(C)[C@H]2CC[C@@]3(C)[C@H](c4ccoc4)OC(=O)[C@H]4O[C@]43[C@@]21C [DIHYDROGEDUNIN] | 62.45% | 35.54%
2 | O[C@H]1[C@H]2c3cc4c(cc3CN3CCC(=C[C@@H]1O)[C@H]23)OCO4 [LYCORINE] | 97.14% | 60.96%
3 | CCC1(c2ccccc2)C(=O)NCNC1=O [PRIMIDONE] | 90.17% | 78.09%
4 | O=[N+]([O-])O[C@H]1CO[C@H]2[C@@H]1OC[C@H]2O[N+](=O)[O-] [ISOSORBIDE DINITRATE] | 114.2% | 86.27%
5 | NCC(O)CC(=O)O (stereo not drawn) [GAMMA-AMINO-BETA-HYDROXYBUTYRIC ACID] | 106.5% | 120.5%
6 | CC(=O)Oc1ccccc1C(=O)Oc1ccccc1C(=O)O [DIPLOSALSALATE] | 93.37% | 91.69%
7 | O=C1C=C2C=C[C@@H]3C[C@@]2(O1)[C@H]1CCCCN31 [SECURININE] | 115.4% | 92.42%
8 | NCCCC[C@H](NC(=O)[C@H](Cc1ccc(O)cc1)NC(=O)[C@@H](N)CCCCN)C(=O)O [LYSYL-TYROSYL-LYSINE ACETATE] (H-Lys-Tyr-Lys-OH) | 124.3% | 85.47%
9 | CSCC[C@H](N)C(=O)N[C@@H](CC(C)C)C(=O)N[C@@H](Cc1ccccc1)C(=O)OC(C)=O | 94.57% | 102.4%
10 | O=C(O)c1cc(-c2ccc(F)cc2F)ccc1O [DIFLUNISAL] | 87.47% | 201%
11 | COc1ccc2c(c1)OC[C@@H](Cc1ccc(OC)c(OC)c1)[C@@H]2O [3-DESHYDROXYSAPPANOL TRIMETHYL ETHER] | 104.1% | 100.6%
12 | C[C@@](Cc1ccc(O)c(O)c1)(NN)C(=O)O.O [CARBIDOPA] | 113.1% | 134.5%
13 | O=C(/C=C(\O)c1ccccc1)c1ccccc1O [2',beta-DIHYDROXYCHALCONE] | 97.75% | 95.04%
14 | COC(=O)C[C@H]1C(C)(C)C(=O)[C@H]2CC3=C4CC(OC)O[C@@H](c5ccoc5)[C@@]4(C)CCC3[C@]1(C)C2=O (stereo partly drawn) [16-DEOXOMEXICANOLIDE 16-METHYL ETHER] | 141.6% | 53.47%
15 | N=c1[nH]c(=O)c2[nH]c(=O)c(=O)[nH]c2[nH]1 [LEUCOPTERIN] | 98.11% | 136.6%
16 | O=C1CN(/N=C/c2ccc([N+](=O)[O-])o2)C(=O)N1 [NITROFURANTOIN] | 100.8% | 97.62%
17 | CCN(CCO)CCCC(C)Nc1ccnc2cc(Cl)ccc12.O=S(=O)(O)O (stereo not drawn) [HYDROXYCHLOROQUINE SULFATE] | 90.84% | 90.44%
18 | C[C@@H]1C(=O)O[C@H]2C[C@@]34[C@H]5C[C@@H](C(C)(C)C)[C@]36[C@@H](OC(=O)[C@@H]6O)O[C@@]4(C(=O)O5)[C@]21O [GINKGOLIDE A] | 113.8% | 103.7%
19 | C[C@@H]1O[C@@H](O[C@H]2[C@H](O[C@H]3CC[C@]4(C)C5CC=C6[C@@H]7CC(C)(C)CC[C@]7(C(=O)O)CC[C@]6(C)[C@]5(C)CC[C@@H]4[C@]3(C)CO)OC[C@H](O)[C@@H]2O)[C@H](O)[C@H](O)[C@H]1O (stereo partly drawn) | 112.9% | 103.8%
20 | CC1(C)O[C@@H]2C[C@H]3[C@@H]4C[C@H](F)C5=CC(=O)CC[C@]5(C)[C@H]4[C@@H](O)C[C@]3(C)[C@]2(C(=O)CO)O1 [FLURANDRENOLIDE] | 99.16% | 129.2%

Row | Structure (SMILES) | residual activity [1] | residual activity [2]
21 | C=C1CCC2C(CC2(C)C)C(=C)CC/C1=N/O (stereo not drawn) [5-HYDROXYIMINOISOCARYOPHYLLENE] | 80.99% | 84.7%
22 | C[n+]1cccc(C(=O)[O-])c1 [TRIGONELLINE] | 98.34% | 111.6%
23 | O=C(Oc1cc(OC(=O)c2ccccc2)c2c(c1)O[C@H](c1ccc(OC(=O)c3ccccc3)c(OC(=O)c3ccccc3)c1)[C@@H](OC(=O)c1ccccc1)C2)c1ccccc1 [CATECHIN PENTABENZOATE] | 118.6% | 113.2%
24 | CCCNC(C)C(=O)Nc1ccccc1C.Cl (stereo not drawn) [PRILOCAINE HYDROCHLORIDE] | 74.6% | 87.24%
25 | CC(=O)[C@H]1CC[C@H]2[C@@H]3CCC4=CC(=O)CC[C@]4(C)[C@H]3CC[C@]12C [PROGESTERONE] | 92% | 52.43%
26 | O=C(O[C@@H]1Cc2c(O)cc(O)cc2O[C@@H]1c1cc(O)c(=O)c2c(O)c(O)cc([C@H]3Oc4cc(O)cc(O)c4C[C@H]3O)c2c1)c1cc(O)c(O)c(O)c1 [THEAFLAVIN MONOGALLATES] | 103.8% | 89.76%
27 | C[C@@H]1CCC[C@H](C)N1NC(=O)c1ccc(Cl)c(S(N)(=O)=O)c1 [CLOPAMIDE] | 107.3% | 113.6%
28 | CC(C(=O)O)c1ccc2c(c1)[nH]c1ccc(Cl)cc12 (stereo not drawn) [CARPROFEN] | 77.78% | 47.72%
29 | COc1ccc2c(c1)c(CC(=O)O)c(C)n2C(=O)c1ccc(Cl)cc1 [INDOMETHACIN] | 50.32% | 97.38%
30 | Oc1ccc2c(c1)OC[C@H]1c3cc4c(cc3O[C@@H]21)OCO4 [MAACKIAIN] | 114.4% | 108.2%
31 | C=C1c2cccc(O)c2C(=O)C2=C(O)[C@]3(O)C(=O)C(C(N)=O)=C(O)[C@@H](N(C)C)[C@@H]3[C@@H](O)[C@H]12.Cl [METHACYCLINE HYDROCHLORIDE] | 110.7% | 110.8%
32 | CC(C)NCC(O)c1cc(O)cc(O)c1 (stereo not drawn) [METAPROTERENOL] | 111.7% | 108.3%
33 | Cl.O=C(O)C1=CCCNC1 [GUVACINE HYDROCHLORIDE] | 108.7% | 115%
34 | COc1cc(C(C)=O)cc(OC)c1O [ACETOSYRINGONE] | 115.4% | 104.7%
35 | Cl.Clc1ccc(C(OCCN2CCCCC2)c2ccccc2)cc1 (stereo not drawn) [CLOPERASTINE HYDROCLORIDE] | 89.01% | 53.44%
36 | COc1c2c(cc3c1OCO3)[C@]13C=C[C@H](OC)C[C@H]1N(C2)C[C@@H]3O [AMBELLINE] | 88.47% | 91.95%
37 | NC[C@H]1O[C@H](O[C@H]2[C@H](O)[C@@H](O[C@H]3O[C@H](CO)[C@@H](O)[C@H](N)[C@H]3O)[C@H](N)C[C@@H]2N)[C@H](N)C[C@@H]1O [TOBRAMYCIN] | 105.2% | 197.1%
38 | C/C=C(\C)C(=O)O[C@H]1C[C@@H](OC(C)=O)[C@@]2(C(=O)OC)CO[C@H]3[C@@H](O)[C@@](C)([C@]45O[C@@]4(C)[C@@H]4C[C@H]5O[C@@H]5OC=C[C@@]54O)[C@H]4[C@]1(CO[C@]4(O)C(=O)OC)[C@@H]32 [AZADIRACHTIN A] | 74.42% | 51.12%
39 | NC(=O)NC1NC(=O)NC1=O (stereo not drawn) [ALLANTOIN] | 86.17% | 67.4%
